From PubChem BioAssay (NCI)
Where “and” joins values, the source holds several entries; their conditions need not be identical. Equal values may be shown once.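 The compound was tested at five concentrations on cells cultured in 96-well plates, with a 48-hour exposure period. GI50 = concentration required for 50% inhibition of growth. TGI marks complete inhibition of growth.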

Experiments:
Assay in all cases: growth of human tumour cells (NCI), 48 h
[1] = test system: A549 NSCLC
[2] = test system: COLO 205 colon
[3] = test system: HCT-15 colon
[4] = test system: KM12 colon
[5] = test system: KM20L2 colon
[6] = test system: LOX IMVI melanoma
[7] = test system: NCI-H23 lung
[8] = test system: OVCAR-8 ovarian
[9] = test system: UACC-257 melanoma
[10] = test system: CCRF-CEM leukemia

[C-]#[O+].[Cl][Sn]([Cl])[Cl].[Cl][Sn]([Cl])[Cl].[Pt].c1ccc([PH+](c2ccccc2)c2ccccc2)cc1.c1ccc([PH+](c2ccccc2)c2ccccc2)cc1
GI50 [1]: 44.1 µM
TGI [1]: > 100 µM
GI50 [2]: > 100 µM
TGI [2]: > 100 µM
GI50 [3]: 49.9 µM
TGI [3]: > 100 µM
GI50 [4]: 42.3 µM
TGI [4]: > 100 µM
GI50 [5]: > 100 µM
TGI [5]: > 100 µM
GI50 [6]: 14.2 µM
TGI [6]: 41 µM
GI50 [7]: 13.7 µM
TGI [7]: 37 µM
GI50 [8]: 22.5 µM
TGI [8]: 65.7 µM
GI50 [9]: 37700 nM
TGI [9]: > 100 µM

CC(N=C(N)N)C(=O)O (stereo not given)
TGI [1]: > 100 µM
TGI [10]: > 100 µM
TGI [2]: > 100 µM
TGI [3]: > 100 µM
TGI [4]: > 100 µM
TGI [6]: > 100 µM
TGI [7]: > 100 µM
TGI [8]: > 100 µM
TGI [9]: > 100 µM

COc1cc(=O)oc(/C=C/C=O)c1C
TGI [1]: > 100 µM
TGI [10]: 88.3 µM
TGI [2]: 31.6 µM
TGI [4]: 38.2 µM
TGI [5]: 30.8 µM
TGI [6]: 16.6 µM
TGI [7]: 46.7 µM
TGI [8]: 81.1 µM
TGI [9]: 35.4 µM

C/C=C(\C)c1cc(=O)c2c(C)cc3c(c2o1)C(=O)c1c(O)c(C2CC(C)(N(C)C)C(O)C(C)O2)cc(C2CC(N(C)C)C(O)C(C)O2)c1C3=O (stereo not given)
GI50 [1]: 0.153 µM
TGI [1]: 1.66 µM
TGI [10]: > 52 µM
TGI [2]: 4.09 µM and 20.1 µM
GI50 [3]: 0.42 µM and 3.22 µM
TGI [3]: 5.15 µM and 24.4 µM
TGI [4]: 2.42 µM and > 23 µM
TGI [5]: 25 µM
TGI [7]: 1.03 µM and 9.29 µM
GI50 [9]: 505 nM and 2590 nM
TGI [9]: 1.9 µM and 8.55 µM

Cc1cc(=O)n(-c2ccccc2)c(=O)o1
TGI [1]: > 100 µM
TGI [10]: > 100 µM
TGI [2]: > 100 µM
TGI [3]: > 100 µM
TGI [4]: > 100 µM
TGI [5]: > 100 µM
TGI [6]: > 100 µM
TGI [7]: > 100 µM
TGI [9]: > 100 µM

O=C(CC(=O)c1ccc([N+](=O)[O-])cc1)C(=O)Nc1nccs1
TGI [1]: > 100 µM
TGI [10]: > 100 µM
TGI [2]: > 100 µM
TGI [3]: > 100 µM
TGI [4]: > 100 µM
TGI [5]: > 100 µM
TGI [6]: > 100 µM
TGI [7]: > 100 µM
TGI [8]: > 100 µM

CC1=CCC2(C#N)CCC1C2O (stereo not given)
TGI [1]: > 100 µM
TGI [10]: > 100 µM
TGI [2]: > 100 µM
TGI [3]: > 100 µM
TGI [4]: > 100 µM
TGI [5]: > 100 µM
TGI [6]: > 100 µM
TGI [8]: > 100 µM
TGI [9]: > 100 µM

CC1(C)C(c2ccccc2)C12CCC1(C2=O)C(c2ccccc2)C1(C)C (stereo not given)
TGI [1]: 75.7 µM
TGI [10]: 36.5 µM
TGI [2]: 33.6 µM
TGI [3]: 51.8 µM
TGI [5]: 52.9 µM
TGI [6]: 42.7 µM
TGI [7]: 44.6 µM
TGI [8]: > 100 µM
TGI [9]: 37.4 µM

CN(Cc1cnc(N)nc1N)c1ccc(C(=O)O)cc1
GI50 [1]: > 100 µM
TGI [1]: > 100 µM
GI50 [10]: > 100 µM
TGI [10]: > 100 µM
GI50 [2]: > 100 µM
TGI [2]: > 100 µM
GI50 [3]: > 100 µM
TGI [3]: > 100 µM
GI50 [4]: > 100 µM
TGI [4]: > 100 µM
GI50 [6]: > 100 µM
TGI [6]: > 100 µM
GI50 [7]: > 100 µM
TGI [7]: > 100 µM
GI50 [8]: > 100 µM
TGI [8]: > 100 µM
GI50 [9]: > 100000 nM
TGI [9]: > 100 µM

O=S1CSCS1 (stereo not given)
TGI [1]: > 100 µM
TGI [10]: > 100 µM
TGI [2]: > 100 µM
TGI [4]: > 100 µM
TGI [5]: > 100 µM
TGI [6]: > 100 µM
TGI [7]: > 100 µM
TGI [8]: > 100 µM
TGI [9]: > 100 µM
